The subject of series [1] is UGT1A1. Set-up: species or system patients. Conditions: UGT1A1*28 and *60; population model ref 24.
The conditions of series [2]: cited from earlier work.
The conditions of series [3]: no reference given; cited from earlier work.

In the case of `O=C(/C=C/c1cccc(S(=O)(=O)Nc2ccccc2)c1)NO` [belinostat], in series [1], the “model-predicted clearance versus number of variant copies of UGT1A1” value is recorded as “decreasing trend with the number of variant copies of UGT1A1”. Also, in series [2], the half-life is ~ 1 h.

In the case of `COc1cc([C@@H]2c3cc4c(cc3[C@@H](O[C@@H]3O[C@@H]5CO[C@@H](C)O[C@H]5[C@H](O)[C@H]3O)[C@H]3COC(=O)[C@H]23)OCO4)cc(OC)c1O` [etoposide], the “dose excreted unchanged renally” value in series [3] is 56%.

(Values after article PMC6631369 (Anti-cancer drugs, 2018).)
